Assay results taken from patent US20260364214A1, “MULTIVALENT FIBROBLAST ACTIVATION PROTEIN LIGANDS FOR TARGETED DELIVERY APPLICATIONS” (Philochem AG, priority 2022, published 2026).

System: SK-RC-52.hFAP tumors
Assay: Quantitative biodistribution in SK-RC-52.hFAP tumor bearing mice
Type: in vivo, mouse (female athymic Balb/c AnNRj-Foxn1)
Settings: i.v. 250 nmol/kg, 50 MBq/kg
Method: SK-RC-52.hFAP were grown to 80% confluence in RPMI-1640 with 10% fetal bovine serum (FBS) and 1% antibiotic-antimycotic and detached with Trypsin-EDTA (ethylenediaminetetraacetic acid) 0.05%. Tumor cells were resuspended in Hanks' Balanced Salt Solution medium. Aliquots of 5 million cells (100 μL of suspension) were injected subcutaneously in the right flank of female athymic Balb/c AnNRj-Foxn1 mice (6 to 8 wk of age).
Radiolabeling of ESV6-DOTAGA, Bi-ESV6-DOTAGA, Tri-ESV6-DOTAGA, Tetra-ESV6-DOTAGA, Hexa-ESV6-DOTAGA, Octa-ESV6-DOTAGA and FAP-2286 with lutetium-177 (a therapeutic radionuclide) was performed with different specific activities for three different studies (biodistribution, therapy and dose optimization).
Prior to the biodistribution study, precursors (100 nmol) were dissolved in 100 μL of milliQ water and diluted with 200 μL of sodium acetate (1 M in water, pH=4.5). 20 MBq of ^177Lu solution were added and the mixture was heated at 90 °C for 10 minutes, followed by dilution with […] of PBS to achieve final volume of 2 mL (20 doses of 100 μL each).
ESV6-DOTAGA, Bi-ESV6-DOTAGA, Tri-ESV6-DOTAGA, Tetra-ESV6-DOTAGA, Hexa-ESV6-DOTAGA, Octa-ESV6-DOTAGA and FAP-2286 were radiolabeled with ^177Lu as described above. Tumors were allowed to grow to an average volume of 300 mm^3. Mice were randomized and injected intravenously with radiolabeled preparations of ^177Lu-ESV6, ^177Lu-Bi-ESV6, ^177Lu-Tri-ESV6, Tetra-ESV6-DOTAGA, Hexa-ESV6-DOTAGA, Octa-ESV6-DOTAGA or ^177Lu-FAP-2286 (250 nmol/kg; 50 MBq/kg). Mice were euthanized at different time-points after the intravenous injection by CO2 asphyxiation. Tumors, organs, and blood were collected, weighted, and radioactivity was measured with a Packard Cobra Gamma Counter. Values are expressed as percent ID/g±SD [FIG. 4]. The % ID/g in the tumors was corrected considering the SK-RC-52.hFAP tumor growth rate.
Quantitative in vivo biodistribution of ^177Lu-ESV6-DOTAGA, ^177Lu-Bi-ESV6-DOTAGA, ^177Lu-Tri-ESV6-DOTAGA, ^177Lu-FAP-2286, Tetra-ESV6-DOTAGA, Hexa-ESV6-DOTAGA and Octa-ESV6-DOTAGA at different time points after intravenous administration (250 nmol/kg, 50 MBq/kg) in mice bearing SK-RC-52.hFAP tumors, are shown in Tables 1 to 4 and 10 to 12. Data are reported as % ID/g±standard deviation.
Tumor-to-organ ratios of ^177Lu-ESV6-DOTAGA, ^177Lu-Bi-ESV6-DOTAGA, ^177Lu-Tri-ESV6-DOTAGA, ^177Lu-FAP-2286, Tetra-ESV6-DOTAGA, Hexa-ESV6-DOTAGA and Octa-ESV6-DOTAGA, at different time points after intravenous administration (250 nmol/kg, 50 MBq/kg) in mice bearing SK-RC-52.hFAP tumors, are shown in Tables 5 to 8 and 13 to 15. Avg.=average; Std.d=standard deviation.

Compound: N#C[C@@H]1CC(F)(F)CN1C(=O)CNC(=O)c1ccnc2c(NC(=O)CCC(=O)NCCNC(=O)CCOCC(COCCC(=O)NCCNC(=O)CCC(=O)Nc3cccc4c(C(=O)NCC(=O)N5CC(F)(F)C[C@H]5C#N)ccnc34)(COCCC(=O)NCCNC(=O)CCC(=O)Nc3cccc4c(C(=O)NCC(=O)N5CC(F)(F)C[C@H]5C#N)ccnc34)NC(=O)CCC(C(=O)O)N3CCN(CC(=O)O)CCN(CC(=O)O)CCN(CC(=O)O)CC3)cccc12 (stereo partly drawn) [Tri-ESV6-DOTAGA, 2,2′,2″-(10-(19-carboxy-1-((4-((2-((S)-2-cyano-4,4-difluoropyrrolidin-1-yl)-2-oxoethyl)carbamoyl)quinolin-8-yl)amino)-14,14-bis((3-((2-(4-((4-((2-((S)-2-cyano-4,4-difluoropyrrolidin-1-yl)-2-oxoethyl)carbamoyl)quinolin-8-yl)amino)-4-oxobutanamido)ethyl)amino)-3-oxopropoxy)methyl)-1,4,9,16-tetraoxo-12-oxa-5,8,15-triazanonadecan-19-yl)-1,4,7,10-tetraazacyclododecane-1,4,7-triyl)triacetic acid]
- tumor uptake / biodistribution profile, in words: remarkably high tumor uptake even after 48, 72 and 96 hours post injection
